Laboratory results taken from ChEMBL document CHEMBL1122428, “Folate analogues. 20. Synthesis and antifolate activity of 1',2',3',4',5',6'-hexahydrohomofolic acid” (J Med Chem, 1983).

Columns and labels:
[1] = system: Enterococcus faecium; assay: Evaluated for the bacterial growth inhibition and the concentration required for 50% inhibition against Streptococcus faecium (MTX resistant); type: functional, organism-based
[2] = system: Enterococcus faecium; assay: Evaluated for the bacterial growth inhibition and the concentration required for 50% inhibition against Streptococcus faecium ATCC 8043 strain; type: functional, organism-based

Row | SMILES | Concentration [1] [ng/mL] | Concentration [2] [ng/mL]
1 | Nc1nc(O)c2c(n1)NCC(CCNC1CCC(C(=O)O)CC1)N2 (configuration not stated) | > 2000 | 260
2 | Nc1nc(O)c2nc(CCN[C@H]3CC[C@@H](C(=O)NC(CCC(=O)O)C(=O)O)CC3)cnc2n1 (some centres not stated) | > 2000 | 2000
3 | Nc1nc(O)c2c(n1)NCC(CCNC1CCC(C(=O)O)CC1)=N2 (configuration not stated) | > 2000 | 130
4 | Nc1nc(O)c2c(n1)NCC(CCN[C@H]1CC[C@@H](C(=O)NC(CCC(=O)O)C(=O)O)CC1)=N2 (some centres not stated) | > 2000 | 30
5 | Nc1nc(O)c2nc(CCNC3CCC(C(=O)O)CC3)cnc2n1 (configuration not stated) | > 2000 | > 2000
6 | Nc1nc(O)c2c(n1)NCC(CCN[C@H]1CC[C@@H](C(=O)NC(CCC(=O)O)C(=O)O)CC1)N2 (some centres not stated) | > 2000 | 38
